What was measured:
E. coli = assay: Assay for antimicrobial activity: test solution incubated with 10^6 CFUs bacteria, neutralised, plated, growth assessed after 24 hours; type: cell-based; set-up: key to Growth of E. coli 24 hrs after treatment, 1:100 dilution of bacterial reaction mixture / Growth of E. coli 24 hrs after treatment, 1:1000 dilution of bacterial reaction mixture / Growth of E. coli 24 hrs after treatment, 1:10 dilution of bacterial reaction mixture: + plates with microbial growth; − for plates that had no growth; conditions: for Growth of E. coli 24 hrs after treatment, 1:1000 dilution of bacterial reaction mixture / Growth of E. coli 24 hrs after treatment, 1:100 dilution of bacterial reaction mixture / Growth of E. coli 24 hrs after treatment, 1:10 dilution of bacterial reaction mixture: 10^6 CFUs, 30 min RT; for Concentration at which growth of E. coli is inhibited: 30 min treatment
Description: • APG: AG6210 (Akzo Nobel Surface Chemistry AB) 60% aqueous solution of a 60:40 mixture of decyl-β-D-glucopyranoside and octyl-β-D-glucopyranoside • Decyl-β-D-glucopyranoside—EC number: 259-218-1; CAS number: 54549-25-6 • Octyl-β-D-glucopyranoside—EC number: 414-420-0; CAS number: 108081-06-7 • ε-polylysine: Zhengzhou Bainafo Co., Ltd. […] L(+)-lactic acid. […] CAS number: 79-33-4 • Neutraliser (NF): 30 ml Tween 80, 30 g saponine, 1 g histidine, 1 g cysteine dissolved in 1000 ml water; sterilised by autoclaving. • RBT 24/7: Residual Barrier Technology. Proprietary antimicrobial surface sanitizer. • Culture media: Oxoid plate count agar (CM0463): […]

[1] = at 20° C.; cited from earlier work
[2] = acid(s) alone, printed as cannot inhibit growth when used at up to, combined concentration for lactic + citric
[3] = Table 1: L(+)-lactic acid alone, listed as 250 mM L(+)-Lactic Acid
[4] = Table 1: L(+)-lactic acid alone, listed as 500 mM L(+)-Lactic Acid
[5] = Table 1: L(+)-lactic acid alone, listed as 1M L(+)-Lactic Acid, 1M L(+)-lactic acid
[6] = Table 1: L(+)-lactic acid alone, listed as 2M L(+)-Lactic Acid, 2M L(+)-lactic acid

Structure (SMILES) | Growth of E. coli 24 hrs after treatment, 1:1000 dilution of bacterial reaction mixture (E. coli; Table 2: citric acid alone, listed as 50 mM Citric Acid) | Concentration at which growth of E. coli is inhibited (E. coli; [2]) | CMC [1] | Growth of E. coli 24 hrs after treatment, 1:100 dilution of bacterial reaction mixture (E. coli; Table 1: L(+)-lactic acid alone, listed as 100 mM L(+)-Lactic Acid) | Growth of E. coli 24 hrs after treatment, 1:1000 dilution of bacterial reaction mixture (E. coli; Table 1: L(+)-lactic acid alone, listed as 100 mM L(+)-Lactic Acid, 100 mM L(+)-lactic acid) | Growth of E. coli 24 hrs after treatment, 1:10 dilution of bacterial reaction mixture (E. coli; [3]) | Growth of E. coli 24 hrs after treatment, 1:100 dilution of bacterial reaction mixture (E. coli; [3]) | Growth of E. coli 24 hrs after treatment, 1:1000 dilution of bacterial reaction mixture (E. coli; Table 1: L(+)-lactic acid alone, listed as 250 mM L(+)-Lactic Acid, 250 mM L(+)-lactic acid) | Growth of E. coli 24 hrs after treatment, 1:10 dilution of bacterial reaction mixture (E. coli; [4]) | Growth of E. coli 24 hrs after treatment, 1:100 dilution of bacterial reaction mixture (E. coli; [4]) | Growth of E. coli 24 hrs after treatment, 1:1000 dilution of bacterial reaction mixture (E. coli; Table 1: L(+)-lactic acid alone, listed as 1M L(+)-Lactic Acid) | Growth of E. coli 24 hrs after treatment, 1:10 dilution of bacterial reaction mixture (E. coli; [5]) | Growth of E. coli 24 hrs after treatment, 1:100 dilution of bacterial reaction mixture (E. coli; [5]) | Growth of E. coli 24 hrs after treatment, 1:1000 dilution of bacterial reaction mixture (E. coli; Table 1: L(+)-lactic acid alone, listed as 2M L(+)-Lactic Acid) | Growth of E. coli 24 hrs after treatment, 1:10 dilution of bacterial reaction mixture (E. coli; [6]) | Growth of E. coli 24 hrs after treatment, 1:100 dilution of bacterial reaction mixture (E. coli; [6]) | Concentration at which growth of E. coli is inhibited (E. coli; lactic acid alone)
O=C(O)CC(O)(CC(=O)O)C(=O)O [Citric Acid, Citric acid] | + | > 50 mM |  |  |  |  |  |  |  |  |  |  |  |  |  |  | 
CCCCCCCCCCO[C@@H]1O[C@H](CO)[C@@H](O)[C@H](O)[C@H]1O [decylglucoside, Decyl-β-D-glucopyranoside] |  |  | approximately 300 ppm |  |  |  |  |  |  |  |  |  |  |  |  |  | 
C[C@H](O)C(=O)O [L(+)-Lactic Acid, L(+)-lactic acid] |  | > 40 mM |  | + | + | + | + | − | + | + | − | + | + | − | − | − | at least 1 M
